US20150246902A1, “SUBSTITUED BENZOFURAN COMPOUNDS AND METHODS OF USE THEREOF FOR THE TREATMENT OF VIRAL DISEASES” (priority 2011, published 2015)

Legend:
HCV replicon genotype 1a = test: microbe, parasite or virus in culture; format: cell-based; details: Hepatitis C virus, 96 h, HCV genotype 1a replicon cells, 96 hours incubation, NS3/4A ELISA readout
HCV replicon genotype 1b = test: microbe, parasite or virus in culture; format: cell-based; details: Hepatitis C virus, 96 h, HCV genotype 1b replicon cells, 96 hours incubation, NS3/4A ELISA readout

Row | Structure (SMILES) | IC50 (HCV replicon genotype 1a) | IC50 (HCV replicon genotype 1b)
1 | CNC(=O)c1c(-c2ccc(F)cc2)oc2cc(N(C)S(C)(=O)=O)c(-c3ccc4c(ccn4-c4ccncc4)c3)cc12 [Compound 58] | 7.2 nM | 2.6 nM
2 | CNC(=O)c1c(-c2ccc(F)cc2)oc2cc(N(C)S(C)(=O)=O)c(-c3cnc4ccn(-c5ccc(F)cc5)c4c3)cc12 [Compound 47, 2-(4-fluorophenyl)-5-(1-(4-fluorophenyl)-1H-pyrrolo[3,2-b]pyridin-6-yl)-N-methyl-6-(N-methylmethylsulfonamido)benzofuran-3-carboxamide] | 2.1 nM | 1.5 nM
3 | CNC(=O)c1c(-c2ccc(F)cc2)oc2cc(N(C)S(C)(=O)=O)c(-c3cc(OC)c4nc(C)n(-c5ccc(F)cc5)c4c3)cc12 [Compound 33] | 13.7 nM | 8.8 nM
4 | CNC(=O)c1c(-c2ccc(F)cc2)oc2cc(N(C)S(C)(=O)=O)c(-c3ccc4ncn(-c5ccccc5C(F)(F)F)c4c3)cc12 [Compound 9] | 75.8 nM | 7.1 nM
5 | CNC(=O)c1c(-c2ccc(F)cc2)oc2cc(N(C)S(C)(=O)=O)c(-c3ccc4ncn(-c5ccccc5)c4c3)cc12 [Compound 2] | 13.2 nM | 2.5 nM
6 | CNC(=O)c1c(-c2ccc(F)cc2)oc2cc(N3CCCC3=O)c(-c3ccc4ncn(-c5ccccc5)c4c3)cc12 [Compound 77, 2-(4-fluorophenyl)-N-methyl-6-(2-oxopyrrolidin-1-yl)-5-(1-phenyl-1H-benzo[d]imidazol-6-yl)benzofuran-3-carboxamide] | 235 nM | 32.6 nM
7 | CNC(=O)c1c(-c2ccc(F)cc2)oc2cc(N(C)S(C)(=O)=O)c(-c3ccc4nnc(-c5ccc(F)cc5)n4c3)cc12 [Compound 111, 2-(4-fluorophenyl)-5-(3-(4-fluorophenyl)-[1,2,4]triazolo[4,3-a]pyridin-6-yl)-N-methyl-6-(N-methylmethylsulfonamido)benzofuran-3-carboxamide] | 4.8 nM | 1.9 nM
8 | CNC(=O)c1c(-c2ccc(F)cc2)oc2cc(N(C)S(C)(=O)=O)c(-c3ccc4c(ccn4-c4ccc(C(F)(F)F)cc4)c3)cc12 [Compound 56] | 224 nM | 30.8 nM
9 | CNC(=O)c1c(-c2ccc(F)cc2)oc2cc(N(C)S(C)(=O)=O)c(-c3cc(-c4nc5c(F)cccc5o4)c4occc4c3)cc12 [Compound 98] | 3.7 nM | 4.1 nM
10 | CNC(=O)c1c(-c2ccc(F)cc2)oc2cc(N(C)S(C)(=O)=O)c(-c3ccc4oc(-c5ccc(F)cc5)nc4c3)cc12 [Compound 87] | 51.5 nM | 10.8 nM
11 | CNC(=O)c1c(-c2ccc(F)cc2)oc2cc(N(C)S(C)(=O)=O)c(-c3ccc4onc(-c5ccccc5)c4c3)cc12 [Compound 83, 2-(4-fluorophenyl)-N-methyl-6-(N-methylmethylsulfonamido)-5-(3-phenylbenzo[d]isoxazol-5-yl)benzofuran-3-carboxamide] | 23.6 nM | 14.7 nM
12 | CNC(=O)c1c(-c2ccc(F)cc2)oc2cc(N(C)S(C)(=O)=O)c(-c3ccc4ncn(C5CCCNC5)c4c3)cc12 (stereo not shown) [Compound 25] | 585 nM | 51.1 nM
13 | CNC(=O)c1c(-c2ccc(F)cc2)oc2cc(N(C)S(C)(=O)=O)c(-c3ccc4ncn(-c5cccc(C(F)(F)F)c5)c4c3)cc12 [Compound 8] | 27.7 nM | 3.9 nM
14 | CNC(=O)c1c(-c2ccc(F)cc2)oc2cc(N(C)S(C)(=O)=O)c(-c3ccc4cnn(-c5ccc(C(F)(F)F)cc5)c4c3)cc12 [Compound 107] | 8.3 nM | 6.1 nM
15 | CNC(=O)c1c(-c2ccc(F)cc2)oc2cc(N(C)S(C)(=O)=O)c(-c3ccc4c(ccn4-c4cccc(F)c4)c3)cc12 [Compound 55] | 152 nM | 23.8 nM
16 | CNC(=O)c1c(-c2ccc(F)cc2)oc2cc(N(C)S(C)(=O)=O)c(-c3cc(-c4cc5ccccc5[nH]4)c4nc(C)cn4c3)cc12 [Compound 99, 5-(8-(1H-indol-2-yl)-2-methylimidazo[1,2-a]pyridin-6-yl)-2-(4-fluorophenyl)-N-methyl-6-(N-methylmethylsulfonamido)benzofuran-3-carboxamide] | 3.1 nM | 5.2 nM
17 | CNC(=O)c1c(-c2ccc(F)cc2)oc2cc(N(C)S(C)(=O)=O)c(-c3ccc4ccn(-c5ccc(F)cc5)c4c3)cc12 [Compound 59] | 15.3 nM | 5.2 nM
18 | CNC(=O)c1c(-c2ccc(F)cc2)oc2cc(N(C)S(C)(=O)=O)c(-c3ccc4[nH]nc(-c5ccncc5)c4c3)cc12 [Compound 74] | 20.6 nM | 5.4 nM
19 | CNC(=O)c1c(-c2ccc(F)cc2)oc2cc(N(C)S(C)(=O)=O)c(-c3ccc4ncn(-c5cc(F)cc(F)c5)c4n3)cc12 [Compound 43] | 158 nM | 17.3 nM
20 | CNC(=O)c1c(-c2ccc(F)cc2)oc2cc(N(C)S(C)(=O)=O)c(-c3ccc4nc(C)n(-c5ccc(F)cc5)c4c3)cc12 [Compound 19] | 12.8 nM | 2.2 nM
21 | CNC(=O)c1c(-c2ccc(F)cc2)oc2cc(N(C)S(C)(=O)=O)c(-c3cn4c(-c5ccc(C(F)(F)F)cc5)cnc4cn3)cc12 [Compound 92] | 12.9 nM | 5.1 nM
22 | CNC(=O)c1c(-c2ccc(F)cc2)oc2cc(N(C)S(C)(=O)=O)c(-c3ccc4ncn(-c5ccccc5Cl)c4c3)cc12 [Compound 11] | 38.9 nM | 3.5 nM
23 | CNC(=O)c1c(-c2ccc(F)cc2)oc2cc(N(C)S(C)(=O)=O)c(-c3ccc4cnn(-c5ccc(F)cc5)c4c3)cc12 [Compound 105, 2-(4-fluorophenyl)-5-(1-(4-fluorophenyl)-1H-indazol-6-yl)-N-methyl-6-(N-methylmethylsulfonamido)benzofuran-3-carboxamide] | 5.2 nM | 2.8 nM
24 | CNC(=O)c1c(-c2ccc(F)cc2)oc2cc(N(C)S(C)(=O)=O)c(-c3ccc4nc(C)n(-c5ccccc5)c4c3)cc12 [Compound 18] | 16.6 nM | 2.1 nM
25 | CNC(=O)c1c(-c2ccc(F)cc2)oc2cc(N(C)S(C)(=O)=O)c(-c3cn4ccnc4cn3)cc12 [Compound 90, 2-(4-fluorophenyl)-5-(imidazo[1,2-a]pyrazin-6-yl)-N-methyl-6-(N-methylmethylsulfonamido)benzofuran-3-carboxamide] | 2180 nM | 120 nM
26 | CNC(=O)c1c(-c2ccc(F)cc2)oc2cc(N(C)S(C)(=O)=O)c(-c3ccc4ncc(-c5ccc(C(F)(F)F)cc5)n4n3)cc12 [Compound 94, 2-(4-fluorophenyl)-N-methyl-6-(N-methylmethylsulfonamido)-5-(3-(4-(trifluoromethyl)phenyl)imidazo[1,2-b]pyridazin-6-yl)benzofuran-3-carboxamide] | 75.7 nM | 12.3 nM
27 | CNC(=O)c1c(-c2ccc(F)cc2)oc2cc(N(C)S(C)(=O)=O)c(-c3ccc4ncn(-c5ccc(F)cc5)c4c3)cc12 [Compound 15] | 5.5 nM | 1.2 nM
28 | CNC(=O)c1c(-c2ccc(F)cc2)oc2cc(N(C)S(C)(=O)=O)c(-c3ccc4ccn(Cc5ccc(C(F)(F)F)cc5)c4c3)cc12 [Compound 67, 2-(4-fluorophenyl)-N-methyl-6-(N-methylmethylsulfonamido)-5-(1-(4-(trifluoromethyl)benzyl)-1H-indol-6-yl)benzofuran-3-carboxamide] | 132 nM | 49.8 nM
29 | CNC(=O)c1c(-c2ccc(F)cc2)oc2cc(N(C)S(C)(=O)=O)c(-c3ccc4ncn(C5CCCN(C(=O)OC(C)(C)C)C5)c4c3)cc12 (stereo not shown) [Compound 24] | 760 nM | 82.6 nM
